Key:
[1] = system: carbon tetrachloride-induced acute liver damage (plasma GOT and GPT); assay: cytoprotective activity in carbon tetrachloride-induced acute liver damage in rats; assay type: in vivo, rat; settings: for minimal effective dose: Rattus norvegicus, sc, rats, dosed three times (0, 6, 12 hrs), read-out: Inhibiting activity of CCl4 induced liver damage, minimum effective dose; for activity in the inhibition of liver damage induced by carbon tetrachloride compared with compounds (d) and (e): words
Description: (i) cytoprotective activity in carbon tetrachloride-induced acute liver damage in rats.
(i) Inhibitory activity on liver damage induced by carbon tetrachloride.
A solution of carbon tetrachloride (2000 μl) dissolved in olive oil (10 ml) was administered to Wistar male rates (body weight 190-220 g) at a rate of 2000 μl/kg animal body weight by intraperitoneal injection.
A solution of a compound of the present invention or of one of the comparison compounds in olive oil (2 ml/kg animal body weight) was administered three times, at the same time as, and then 6 hrs and 12 hrs after, the dosage of carbon tetrachloride, and blood was collected twice after 24 hrs and 48 hrs after the first dosage. The blood was centrifuged and plasma GOT (glutamic oxalacetic transaminase) activity and plasma GPT (glutamic pyruvic transaminase) activity were measured.

blood pressure = assay: hypotensive activity in the anesthetized dog, intravenous administration; assay type: in vivo; settings: relative to PGE1 = 1
Description: (ii) hypotensive activity in dogs and
(ii) Hypotensive activity was measured in the anesthetized dog by intravenous administration, and as active control, PGE1 was used.

[2] = system: blood platelet aggregation induced by ADP; assay: inhibitory activity of blood platelet aggregation induced by ADP in rats; assay type: cell-based, rat; settings: relative to PGE1 = 1
Excerpt: (iii) inhibitory activity of blood platelet aggregation induced by ADP in rats. The experimental methods are described hereinafter.
(iii) The concentrations required to inhibit blood platelet aggregation induced in rats by ADP (adenosine diphosphate) are shown relative to PGE1.

[3] = toxicity (LD50) by intravenous administration in mice; settings: mouse, in vivo

Inhibiting activity of blood platelet aggregation (PGE1 = 1) [2] | Structure (SMILES) | minimal effective dose [1] [mg/kg] | activity in the inhibition of liver damage induced by carbon tetrachloride compared with compounds (d) and (e) [1] | Hypotensive activity (PGE1 = 1) (blood pressure) | LD50 [3] [mg/kg]
68 | CCCCC(C)C[C@H](O)/C=C/[C@H]1[C@H](O)CC(=O)[C@@H]1CC(=O)CCCCC(=O)O (some centres unmarked) [(d), reference compound] | 0.03 | – | 21 | –
506 | CCCC[C@H]1CC[C@H]([C@H](O)/C=C/[C@H]2[C@H](O)CC(=O)[C@@H]2CC(=O)CCCCC(=O)O)C1 [(e), reference compound] | 0.005 | – | 24.5 | –
0.0053 | CCCC[C@H](C)C[C@H](O)/C=C/[C@H]1[C@H](O)CC(=O)[C@@H]1CC(=O)CCCCC(=O)N[C@@H](Cc1ccccc1)C(=O)OC [Example 2(a), N[(13E)-(11α,15α,17S)6,9-dioxo-11,15-dihydroxy-17,20-dimethylprost-13-en-1-oyl]-L-phenylalanine methyl ester] | 0.03 | almost the same activity | 0.014 | –

Structure (SMILES) | Inhibiting activity of blood platelet aggregation (PGE1 = 1) [2] | minimal effective dose [1] [mg/kg] | activity in the inhibition of liver damage induced by carbon tetrachloride compared with compounds (d) and (e) [1] | Hypotensive activity (PGE1 = 1) (blood pressure) | LD50 [3] [mg/kg]
CCCC[C@H]1CC[C@H]([C@H](O)/C=C/[C@H]2[C@H](O)CC(=O)[C@@H]2CC(=O)CCCCC(=O)N[C@@H](CC(C)C)C(=O)O)C1 [1(b), N-[(13E)-(11α,15α,16S,18S)-6,9-dioxo-11,15-dihydroxy-16,18-ethano-20-ethylprost-13-en-1-oyl]-L-leucine] | 0.01 | < 0.01 | almost the same activity | 0.01 | 30
CCCC[C@H]1CC[C@H]([C@H](O)/C=C/[C@H]2[C@H](O)CC(=O)[C@@H]2CC(=O)CCCCC(=O)N[C@@H](Cc2ccccc2)C(=O)O)C1 [Example 1, N-[(13E)-(11α,15α,16S,18S)-6,9-dioxo-11,15-dihydroxy-16,18-ethano-20-ethylprost-13-en-1-oyl]-L-phenylalanine] | 0.01 | < 0.01 | almost the same activity | 0.03 | 22

Reference: US4783480A, “6-keto-prostaglandin E1 derivatives” (Ono Pharmaceutical Co., Ltd., priority 1986, dated 1988)
